# Data published in the supplement of paper PMC10307832.
# Key:
# Assay in all cases: relative viability (nuclei count vs DMSO), 5 days (fraction); higher = more cells survive
# [1] = compound: O=C(O)c1ccc2c(c1)nc(Nc1cccc(Cl)c1)c1ccncc12 [Silmitasertib] + COc1cc2c(Oc3ccc(NC(=O)C4(C(=O)Nc5ccc(F)cc5)CC4)cc3F)ccnc2cc1OCCCN1CCOCC1 [Foretinib] (partner 0.25 µM)
# In short: (§1)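 For relative viability, nuclei counts in treated wells were divided by those in vehicle wells. Lung cancer cell lines had been pin-tool dosed in 1536-well plates the day after seeding and cultured for 5 days, then fixed and stained in one step (final 0.05% Triton X-100, 1% formaldehyde, 1 ug/ml Hoechst) and imaged at 4×. Doses were one drug alone or a fixed anchor-drug dose plus five library-drug doses (not always all listed) in √10 steps, and values are duplicate-plate medians.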
# Silmitasertib + OSI-027 = compound: O=C(O)c1ccc2c(c1)nc(Nc1cccc(Cl)c1)c1ccncc12 [Silmitasertib] + COc1cccc2cc(-c3nc([C@H]4CC[C@H](C(=O)O)CC4)n4ncnc(N)c34)[nH]c12 [OSI-027] (partner 0.5 µM)
# In short: as §1
# [2] = compound: O=C(O)c1ccc2c(c1)nc(Nc1cccc(Cl)c1)c1ccncc12 [Silmitasertib] + C[C@@H](Oc1cc(-c2cnn(C3CCNCC3)c2)cnc1N)c1c(Cl)ccc(F)c1Cl [Crizotinib] (partner 1 µM)
# In short: as §1
# [3] = compound: O=C(O)c1ccc2c(c1)nc(Nc1cccc(Cl)c1)c1ccncc12 [Silmitasertib] + Cc1nc(NC(=O)N2CCC[C@H]2C(N)=O)sc1-c1ccnc(C(C)(C)C(F)(F)F)c1 [Alpelisib] (partner 2 µM)
# In short: as §1
# [4] = compound: O=C(O)c1ccc2c(c1)nc(Nc1cccc(Cl)c1)c1ccncc12 [Silmitasertib] + N=C(N)NC(=N)NCCc1ccccc1 [Phenformin] (partner 250 µM)
# In short: as §1
Cell Line,relative viability ([1]; first compound 0.04 µM),relative viability ([1]; first compound 1.265 µM),relative viability ([1]; first compound 4 µM),relative viability (Silmitasertib + OSI-027; first compound 0.04 µM),relative viability (Silmitasertib + OSI-027; first compound 1.265 µM),relative viability (Silmitasertib + OSI-027; first compound 4 µM),relative viability ([2]; first compound 0.04 µM),relative viability ([2]; first compound 1.265 µM),relative viability ([2]; first compound 4 µM),relative viability ([3]; first compound 0.04 µM),relative viability ([3]; first compound 1.265 µM),relative viability ([3]; first compound 4 µM),relative viability ([4]; first compound 0.04 µM),relative viability ([4]; first compound 1.265 µM),relative viability ([4]; first compound 4 µM),relative viability ([1]; first compound 0.4 µM),relative viability (Silmitasertib + OSI-027; first compound 0.4 µM),relative viability ([2]; first compound 0.4 µM),relative viability ([3]; first compound 0.4 µM),relative viability ([4]; first compound 0.4 µM)
NCI-H441,0.871,0.67,0.277,0.629,0.337,0.26,0.814,0.787,0.6,0.746,0.634,0.41,0.692,0.739,0.335,–,–,–,–,–
NCI-H460,1.04,1.07,1.15,0.822,0.64,0.672,0.91,0.755,0.865,0.488,0.466,0.421,0.523,0.583,0.414,0.961,0.688,0.866,0.512,0.525
NCI-H520,0.742,0.934,0.711,0.197,0.252,0.252,0.821,0.792,0.612,0.932,1.16,0.832,0.677,0.605,0.429,1,0.239,0.728,1.01,0.492
NCI-H596,0.817,0.787,0.871,0.749,0.68,0.472,1.01,0.909,0.964,0.47,0.382,0.444,0.655,0.735,0.573,0.74,0.471,1.01,0.429,0.632
NCI-H647,1.21,0.874,1.06,0.775,0.503,0.44,1.26,0.932,0.48,1.37,0.688,0.465,0.513,0.477,0.189,1.04,0.578,1.1,1.09,0.303
NCI-H650,1.07,0.884,0.777,0.699,0.515,0.366,0.79,0.463,0.378,1.16,1.09,0.99,0.542,0.377,0.235,0.699,0.424,0.502,0.648,0.339
NCI-H661,1.1,0.892,0.884,0.864,0.635,0.577,1.02,–,1.1,0.784,0.547,0.338,0.287,0.283,0.276,1.01,0.593,0.929,–,0.339
NCI-H727,0.915,0.695,1.03,0.701,0.48,0.488,0.868,0.753,0.485,0.611,0.493,0.297,0.692,0.511,0.348,0.689,0.426,0.65,0.506,0.488
NCI-H838,1.16,0.996,0.589,0.456,0.425,0.274,0.941,0.861,0.511,1.05,0.967,0.556,0.708,0.513,0.362,–,–,–,–,–
NCI-H1355,0.944,0.822,0.916,0.438,0.371,0.345,1.07,1.1,1.07,0.911,0.721,0.766,0.457,0.46,0.43,–,–,–,–,–
NCI-H1437,1.28,1.24,0.942,0.946,0.598,0.457,0.916,0.865,0.778,0.976,0.741,0.498,0.327,0.305,0.278,1.16,0.623,–,–,0.334
NCI-H1651,0.951,0.812,0.732,0.822,0.642,0.704,0.88,0.834,0.924,0.951,0.952,0.86,0.339,0.378,0.363,0.892,0.667,0.727,1.03,0.321
NCI-H1666,0.954,0.693,0.6,0.812,0.652,0.615,0.918,0.691,0.508,1.03,0.61,0.505,0.571,0.607,0.511,0.964,0.732,0.787,0.781,0.582
NCI-H1734,0.877,0.781,0.753,0.626,0.593,0.497,0.628,0.606,0.655,0.688,0.649,0.66,0.499,0.42,0.357,0.8,0.522,–,–,0.358
NCI-H1755,0.945,0.901,1.07,0.726,0.728,0.721,0.89,0.929,0.924,0.981,0.908,0.987,0.643,0.637,0.586,0.911,0.764,0.837,0.912,0.601
NCI-H1915,1.13,1.05,0.991,0.624,0.676,0.351,0.888,0.931,0.718,1.05,1.14,0.885,0.362,0.37,0.249,–,–,–,–,–
NCI-H1944,0.924,0.92,1,0.409,0.424,0.295,1.1,0.965,1.03,0.892,0.774,0.884,0.21,0.22,0.186,0.768,0.382,0.856,0.765,0.211
